Results: patent US8883782B2, “Spiro-tetracyclic ring compounds as beta-secretase modulators and methods of use” (Amgen Inc., priority 2010, dated 2014)

Key:
[1] = system: Aβ40 in conditioned medium of cells stably expressing Amyloid Precursor Protein (APP); assay: In vitro BACE cell-based assay (Aβ40 in conditioned medium, sandwich ELISA); settings: Homo sapiens, HEK293, average IC50; read-out: HEK cell assay
Summary of the method: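 Conditioned medium from stably APP-expressing cells treated with compound dose series is assayed for Aβ40 by sandwich ELISA with time-resolved fluorescence detection. IC50 is calculated from percent inhibition of Aβ40 against compound concentration.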

[2] = target: Beta Secretase enzyme (BACE) (Homo sapiens, UniProt P56817); assay: In vitro enzymatic BACE FRET (fluorescence resonance energy transfer) assay; type: biochemical; settings: average IC50, enzyme assay; read-out: BACE 1 FRET assay
Chain of Beta Secretase enzyme (BACE) (P56817 46-501, species assumed): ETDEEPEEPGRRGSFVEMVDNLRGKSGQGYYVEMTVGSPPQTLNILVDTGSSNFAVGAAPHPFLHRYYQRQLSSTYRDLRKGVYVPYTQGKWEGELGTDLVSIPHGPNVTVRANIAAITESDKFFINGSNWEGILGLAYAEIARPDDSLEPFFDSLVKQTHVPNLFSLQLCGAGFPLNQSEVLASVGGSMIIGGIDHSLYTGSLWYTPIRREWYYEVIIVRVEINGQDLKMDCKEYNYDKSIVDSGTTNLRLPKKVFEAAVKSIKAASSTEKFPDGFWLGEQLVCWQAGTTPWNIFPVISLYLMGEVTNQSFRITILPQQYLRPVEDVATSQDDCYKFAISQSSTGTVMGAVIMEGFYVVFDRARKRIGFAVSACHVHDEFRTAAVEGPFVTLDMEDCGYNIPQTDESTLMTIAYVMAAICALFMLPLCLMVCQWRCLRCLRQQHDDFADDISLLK
Summary of the method: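 Cleavage of a 50 nM fluorophore/quencher peptide FRET substrate by BACE for 1 h in 0.05 M acetate pH 4.2, 10% DMSO, 100 uM genapol. Reaction stopped with Tris to neutral pH before fluorescence reading.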

| SMILES | IC50 [1] [µM] | IC50 [2] [µM] |
| --- | --- | --- |
| Cc1cncc(-c2ccc3c(c2)[C@@]2(COC(N)=N2)c2cc(OCC4(C)COC4)c(F)cc2O3)c1 [Example 328, (4S)-3′-fluoro-2′-((3-methyl-3-oxetanyl)methoxy)-7′-(5-methyl-3-pyridinyl)spiro[1,3-oxazole-4,9′-xanthen]-2-amine] | 0.0456 | 0.0236 |
| COc1cncc(-c2ccc3c(c2)[C@@]2(COC(N)=N2)c2cc(OCC4(C)COC4)c(F)cc2O3)c1 [Example 329, (4S)-3′-fluoro-7′-(5-methoxy-3-pyridinyl)-2′-((3-methyl-3-oxetanyl)methoxy)spiro[1,3-oxazole-4,9′-xanthen]-2-amine] | 0.0525 | 0.0089 |
| CC1(COc2cc3c(cc2F)Oc2ccc(-c4cncc(C#N)c4)cc2[C@@]32COC(N)=N2)COC1 [Example 330, 5-((4S)-2-amino-6′-fluoro-7′-((3-methyl-3-oxetanyl)methoxy)spiro[1,3-oxazole-4,9′-xanthen]-2′-yl)-3-pyridinecarbonitrile] | 0.0336 | 0.0088 |
| CC1(COc2cc3c(cc2F)Oc2ccc(-c4cccc(C#N)c4)cc2[C@@]32COC(N)=N2)COC1 [Example 331, 3-((4S)-2-amino-6′-fluoro-7′-((3-methyl-3-oxetanyl)methoxy)spiro[1,3-oxazole-4,9′-xanthen]-2′-yl)benzonitrile] | 0.0855 | 0.0139 |
| Cn1cc(-c2ccc3c(c2)[C@@]2(COC(N)=N2)c2cc(OCC4(C)COC4)c(F)cc2O3)cn1 [Example 332, (4S)-3′-fluoro-2′-((3-methyl-3-oxetanyl)methoxy)-7′-(1-methyl-1H-pyrazol-4-yl)spiro[1,3-oxazole-4,9′-xanthen]-2-amine] | 0.49 | 0.545 |
| CC1(COc2cc3c(cc2F)Oc2ccc(-c4cncc(Cl)c4)cc2[C@@]32COC(N)=N2)COC1 [Example 333, (4S)-7′-(5-chloro-3-pyridinyl)-3′-fluoro-2′-((3-methyl-3-oxetanyl)methoxy)spiro[1,3-oxazole-4,9′-xanthen]-2-amine] | 0.0218 | 0.0024 |
| NC1=N[C@@]2(CO1)c1cc(-c3cccnc3F)ccc1Oc1cc(F)c(C3CCOCC3)cc12 [Example 334, (4S)-3′-fluoro-7′-(2-fluoro-3-pyridinyl)-2′-(tetrahydro-2H-pyran-4-yl)spiro[1,3-oxazole-4,9′-xanthen]-2-amine] | 0.0676 | 0.0189 |
| NC1=N[C@]2(CO1)c1cc(N3CCOCC3)ccc1Oc1cc(F)c(-c3cncnc3)cc12 [Example 335, (4S)-3′-fluoro-7′-(4-morpholinyl)-2′-(5-pyrimidinyl)spiro[1,3-oxazole-4,9′-xanthen]-2-amine] | 0.0433 | 0.0164 |
| CC(C)(O)C#Cc1ccc2c(c1)[C@]1(COC(N)=N1)c1cc(-c3cncnc3)c(F)cc1O2 [Example 336, 4-((4R)-2-amino-6′-fluoro-7′-(5-pyrimidinyl)spiro[1,3-oxazole-4,9′-xanthen]-2′-yl)-2-methyl-3-butyn-2-ol] | 0.0193 | 0.0064 |
| CC(C)(C)C#Cc1cnc2c(c1)[C@@]1(COC(N)=N1)c1c(ccc(-c3cncnc3)c1F)O2 [Example 337, (5S)-3-(3,3-dimethyl-1-butyn-1-yl)-6-fluoro-7-(5-pyrimidinyl)spiro[chromeno[2,3-b]pyridine-5,4′-[1,3]oxazol]-2′-amine] | 0.535 | 0.836 |
| CC(C)(C)C#Cc1cnc2c(c1)[C@@]1(COC(N)=N1)c1cc(-c3cncnc3)c(F)cc1O2 [Example 338, (5R)-3-(3,3-dimethyl-1-butyn-1-yl)-8-fluoro-7-(5-pyrimidinyl)spiro[chromeno[2,3-b]pyridine-5,4′-[1,3]oxazol]-2′-amine] | 1.24 | 0.213 |
| CC1(C#Cc2cnc3c(c2)[C@@]2(COC(N)=N2)c2c(ccc(-c4cccnc4F)c2F)O3)COC1 [Example 341, (5S)-6-fluoro-7-(2-fluoro-3-pyridinyl)-3-((3-methyl-3-oxetanyl)ethynyl)spiro[chromeno[2,3-b]pyridine-5,4′-[1,3]oxazol]-2′-amine] | 0.566 | 0.154 |
